The values that follow come from ChEMBL document CHEMBL4483862, “Open-source discovery of chemical leads for next-generation chemoprotective antimalarials” (2018).

This assay concerns Plasmodium berghei. Briefly: Luciferase/luciferin-expressing antifolate-resistant parasites were used to infect a culture of HepG2 cells that were pre-incubated with compounds. Infected hepatocytes emit light due to the luciferase reaction. Assay results are presented as the percent inhibition of light emission compared to control. […]. It is filed as functional. Particulars: sporozoite; for IC90: read-out: LUCIFERASE INFECTION ASSAY - IC90.

The mark [1] stands for this setting: read-out: LUCIFERASE INFECTION ASSAY - IC50.

pIC50: −log10 of the molar value. A value given as a limit tells only on which side of the number the result lay.

Take `CCn1c2ccc(C(=O)N/N=C/c3cn(-c4ccccc4)nc3-c3ccc(OC(F)F)cc3)cc2c[n+]1C`: the IC90 is more than 10 µM. Further, under “PBLUC_HILL_SLOPE 9.98, PBLUC_R_SQUARED 0.817, read-out: LUCIFERASE INFECTION ASSAY - IC50”, the negative logarithm of the IC50 (pIC50) is 5.09.
`CCC(C)(C)C1CCC(NC(=O)N(C)CC(=O)Nc2c(C)cccc2C)CC1` (stereo not given): the IC90 is more than 10 µM. Moreover, the pIC50 under setting [1] is less than 5.00.
For `O=[N+]([O-])c1ccc2c(c1)nc(SCc1ccc(Cl)cc1Cl)n2-c1ccccc1`, the IC90 was more than 10 µM. Further, the pIC50 (FFLUC_HILL_SLOPE 1.41, FFLUC_R_SQUARED 0.219, read-out: LUCIFERASE INFECTION ASSAY - IC50) is less than 5.00.
For `Cc1nn(Cc2ccc(F)cc2)c2sc(C(=O)NCc3nnc4ccc(C(F)(F)F)cn34)cc12`, the IC90 is more than 10 µM. In addition, the pIC50 under setting [1] is less than 5.00.
`O=C(CSCc1nc(-c2ccc(Cl)cc2)cs1)NNS(=O)(=O)c1ccc(Cl)cc1`: the IC90 is more than 6.76 µM. Also, for the setting “HEPG2TOX_HILL_SLOPE 8.04, HEPG2TOX_R_SQUARED 0.486, read-out: LUCIFERASE INFECTION ASSAY - IC50”, the pIC50 was less than 5.17.
For `N#C/C(=C\c1ccc(OC(=O)c2cccnc2)cc1)c1nnc2n1CCCCC2`, the IC90 is more than 10 µM. For the same compound, the pIC50 under setting [1] is less than 5.00.
Turning to `CCCCc1[nH]nc2ccnc(-c3ccsc3)c12`, the IC90 was more than 10 µM. Further, under setting [1], the pIC50 was less than 5.00.
For `Cc1ccc(Nc2cc(C(C)C)c(OS(=O)(=O)c3ccc(C)cc3)c(C(C)C)c2)cc1`, the IC90 came out at 9.61 µM. The pIC50 (HEPG2TOX_HILL_SLOPE 1.43, HEPG2TOX_R_SQUARED 0.724, PBLUC_HILL_SLOPE 19.9, PBLUC_R_SQUARED 0.613, read-out: LUCIFERASE INFECTION ASSAY - IC50) was 5.07.
Regarding `CC(C)(C)CC(C)(C)NC(=O)c1cccc(S(=O)(=O)N2CCc3ccccc32)c1`, the IC90 is more than 10 µM. Besides, the pIC50 (HEPG2TOX_HILL_SLOPE 2.33, HEPG2TOX_R_SQUARED 0.906, PBLUC_HILL_SLOPE 19.2, PBLUC_R_SQUARED 0.577, read-out: LUCIFERASE INFECTION ASSAY - IC50) was 5.02.
As for `Nc1ncc(-c2cc(F)c(F)c(F)c2)cc1-c1cccc(O)c1`, the concentration for an effect of 90% (IC90) is more than 10.4 µM. In addition, under setting [1], the pIC50 is less than 4.98.
Consider `O=c1[nH]nc(Sc2ncc([N+](=O)[O-])s2)n1Cc1ccccc1`, for which the IC90 is more than 9.84 µM. Besides, the pIC50 (FFLUC_HILL_SLOPE 3.03, FFLUC_R_SQUARED 0.344, HEPG2TOX_HILL_SLOPE 12.4, HEPG2TOX_R_SQUARED 0.571, PBLUC_HILL_SLOPE 13, PBLUC_R_SQUARED 0.0851, read-out: LUCIFERASE INFECTION ASSAY - IC50) is 5.06.
With `CCn1c(SCCC(=O)Nc2cc(C)on2)nnc1-c1ccc(C(C)(C)C)cc1`, the IC90 was more than 10 µM. Further, the pIC50 under setting [1] is less than 5.00.
In the same order, the values of `COc1cc2c(cc1NC(=O)C(C)NCC(c1ccccc1)N(C)C)oc1ccccc12` (stereo not given) are more than 10 µM and less than 5.00.
In the same order, the values of `O=C(c1ccc(S(=O)(=O)NCc2ccco2)cc1)N1CCc2sccc2C1c1cccs1` (stereo not given) are more than 10 µM and less than 5.00.
As for `N#Cc1c(Cl)nsc1NCc1cnn(Cc2ccccc2)c1`, the IC90 is 1.22 µM. Besides, the pIC50 (FFLUC_HILL_SLOPE 12.9, FFLUC_R_SQUARED 0.244, HEPG2TOX_HILL_SLOPE 2.27, HEPG2TOX_R_SQUARED 0.949, PBLUC_HILL_SLOPE 20.5, PBLUC_R_SQUARED 0.627, read-out: LUCIFERASE INFECTION ASSAY - IC50) is 5.96.
As to `CN1CCN(c2nc(-c3c(-c4ccc(F)cc4)[nH]c4ccccc34)cs2)CC1`, the IC90 is more than 10 µM. Moreover, the negative logarithm of the IC50 (pIC50) under setting [1] was less than 5.00.
Regarding `CCOc1ccc(-c2n[nH]c3c2C(c2ccccc2)N(c2ccccc2)C3=O)cc1` (stereo not given), the IC90 was more than 8.34 µM. The pIC50 (FFLUC_HILL_SLOPE 11.9, FFLUC_R_SQUARED 0.867, HEPG2TOX_HILL_SLOPE 2.22, HEPG2TOX_R_SQUARED 0.878, read-out: LUCIFERASE INFECTION ASSAY - IC50) was less than 5.08.
For `COc1cccc(Nc2nccc3nc(-c4ccc(F)c(F)c4)[nH]c23)c1`, the IC90 was more than 10 µM. Besides, the pIC50 (HEPG2TOX_HILL_SLOPE 7.52, HEPG2TOX_R_SQUARED 0.793, PBLUC_HILL_SLOPE 2.32, PBLUC_R_SQUARED 0.606, read-out: LUCIFERASE INFECTION ASSAY - IC50) is 5.39.
In the case of `Cc1nc(NC(=O)c2ccc(-n3ccnc3)nc2)sc1SCC#N`, the IC90 is more than 10 µM. Also, the negative logarithm of the IC50 (pIC50) under setting [1] was less than 5.00.
In the case of `Cc1ccc(C)c(OCC(O)CN2CCN(Cc3nc(-c4ccc(Cl)cc4)no3)CC2)c1` (stereo not given), the IC90 was determined as 7.62 µM. Further, for the setting “HEPG2TOX_HILL_SLOPE 2.12, HEPG2TOX_R_SQUARED 0.919, PBLUC_HILL_SLOPE 1.87, PBLUC_R_SQUARED 0.881, read-out: LUCIFERASE INFECTION ASSAY - IC50”, the pIC50 is 5.63.
In the case of `CC(=O)Nc1cccc(/C(C)=N/n2c(-c3cccc(Br)c3)cs/c2=N\c2ccc(F)cc2)c1`, the 90% effect concentration (IC90) amounted to 1.69 µM. Also, the pIC50 (HEPG2TOX_HILL_SLOPE 2.5, HEPG2TOX_R_SQUARED 0.833, PBLUC_HILL_SLOPE 128, PBLUC_R_SQUARED 0.253, read-out: LUCIFERASE INFECTION ASSAY - IC50) is 5.78.
Consider `CN1c2ccsc2C(=O)/C(=C\Nc2ccccc2Cl)S1(=O)=O`, for which the IC90 is more than 9.3 µM. In addition, the pIC50 under setting [1] was less than 5.03.
In the same order, the values of `CCOc1ccccc1OCC(=O)Nc1nc(-c2cc(C)n(-c3ccc(F)cc3)c2C)cs1` are more than 10 µM and less than 5.00.
Regarding `CN1/C(=C\Sc2ccccc2[N+](=O)[O-])C(C)(C)c2ccccc21`, the IC90 was more than 10 µM. Moreover, where the note is “HEPG2TOX_HILL_SLOPE 1.18, HEPG2TOX_R_SQUARED 0.48, PBLUC_HILL_SLOPE 2.15, PBLUC_R_SQUARED 0.378, read-out: LUCIFERASE INFECTION ASSAY - IC50”, the pIC50 is 5.09.
As for `O=C(Nc1ccccc1)C1=C(N2CCOCC2)/C(=C/c2ccc(Br)cc2)CC1`, the IC90 was more than 10 µM. Also, the pIC50 under setting [1] is less than 5.00.
Taken in the same sequence, the figures for `[O-][S+](Cc1cc(N2CCCCC2)nc(-c2ccccn2)n1)c1ccc(Cl)cc1` (stereo not given) were more than 7.99 µM and less than 5.10.
For `Cc1cc2ccccn2c1C(=O)c1nc(S(C)(=O)=O)ncc1Cl`, the IC90 is more than 10 µM. Besides, the pIC50 (HEPG2TOX_HILL_SLOPE 4.52, HEPG2TOX_R_SQUARED 0.995, PBLUC_HILL_SLOPE 10.9, PBLUC_R_SQUARED 0.162, read-out: LUCIFERASE INFECTION ASSAY - IC50) is 5.09.
Take `CC1=C(C(=O)OC2CCC(C)CC2)C(c2ccc(C)cc2)NC(=O)N1` (stereo not given): the IC90 was more than 9.64 µM. Moreover, the pIC50 (FFLUC_HILL_SLOPE 14.5, FFLUC_R_SQUARED 0.355, read-out: LUCIFERASE INFECTION ASSAY - IC50) was less than 5.02.
Consider `CCO/C(C)=N\OC(=O)c1c(-c2c(Cl)cccc2Cl)noc1C`, for which the concentration for an effect of 90% (IC90) was more than 9.24 µM. Besides, the pIC50 under setting [1] was less than 5.03.
As for `COc1cc(-c2cnc3cnc(-c4ccc(N5CCN(C)CC5)nc4)cn23)ccc1O`, the IC90 was more than 7.92 µM. The pIC50 (PBLUC_HILL_SLOPE 8.9, PBLUC_R_SQUARED 0.156, read-out: LUCIFERASE INFECTION ASSAY - IC50) is 5.15.
With `Cc1nc(N2N=C3/C(=C/c4ccc(F)cc4)CCCC3C2c2ccc(F)cc2)sc1C(=O)N(C)C` (stereo not given), the concentration for an effect of 90% (IC90) is more than 10 µM. For the same compound, under setting [1], the pIC50 was less than 5.00.
As for `Cc1cccc(N2CCN(C(=O)c3cccc(S(=O)(=O)N4CCc5ccccc5C4)c3)CC2C)c1` (stereo not given), the IC90 is more than 10 µM. Besides, the pIC50 (HEPG2TOX_HILL_SLOPE 1.53, HEPG2TOX_R_SQUARED 0.865, read-out: LUCIFERASE INFECTION ASSAY - IC50) is less than 5.00.
In the case of `Cc1c(S(=O)(=O)c2ccc(Cl)cc2)csc1C(=O)N1CC(C)OC(C)C1` (stereo not given), the IC90 is more than 7.97 µM. The pIC50 under setting [1] was less than 5.10.
In the case of `Cn1cc(CN2CCC3(CC2)C(=O)N(CCCc2cccnc2)C(=O)N3Cc2ccccc2)c2ccccc21`, the IC90 is more than 6.33 µM. Moreover, under “PBLUC_HILL_SLOPE 1.35, PBLUC_R_SQUARED 0.738, read-out: LUCIFERASE INFECTION ASSAY - IC50”, the pIC50 was 5.49.
With `C/C(=N\Nc1nc2ccccc2[nH]1)c1ccc(Cl)s1`, the IC90 is more than 10 µM. Besides, the pIC50 (PBLUC_HILL_SLOPE 13.6, PBLUC_R_SQUARED 0.0664, read-out: LUCIFERASE INFECTION ASSAY - IC50) is 5.03.
As to `Cc1ccc(-n2c(C)cc(/C=C3\N=C4CCCCCN4C3=O)c2C)c(C)c1`, the IC90 was more than 10 µM. Under setting [1], the pIC50 is less than 5.00.
In the same order, the values of `Cc1ccc(-c2cs/c(=N\c3ccc(C)c(C)c3)n2/N=C/c2ccc(O)cc2O)cc1` are more than 10 µM and less than 5.00.
As to `O=[N+]([O-])c1ccccc1NC(=S)N/N=C/c1ccc(O)c(O)c1`, the IC90 was found to be 8.44 µM. Moreover, the negative logarithm of the IC50 (pIC50) (FFLUC_HILL_SLOPE 1.09, FFLUC_R_SQUARED 0.362, HEPG2TOX_HILL_SLOPE 7.32, HEPG2TOX_R_SQUARED 0.0511, PBLUC_HILL_SLOPE 3.36, PBLUC_R_SQUARED 0.569, read-out: LUCIFERASE INFECTION ASSAY - IC50) is 5.36.
Consider `CC(C)c1ccc2c(c1)/C(=N/Nc1ccc(S(=O)(=O)Nc3ccc(Cl)cc3)cc1[N+](=O)[O-])C(=O)N2`, for which the IC90 is more than 10 µM. Besides, the pIC50 under setting [1] was less than 5.00.
In the case of `N#Cc1ccc(-c2cc(C3(CNc4cccc(OC(F)(F)F)c4)CC3)ccn2)cc1`, the IC90 was more than 10 µM. Besides, under “PBLUC_HILL_SLOPE 1.65, PBLUC_R_SQUARED 0.178, read-out: LUCIFERASE INFECTION ASSAY - IC50”, the negative-log IC50 (pIC50) is less than 5.00.

As usually defined, the pIC50 is the IC50 on a negative log10 scale, so that one unit is a factor of ten. In general, IC90 refers to the concentration at which the effect reaches the 90% level.
